In ChEMBL document CHEMBL6121064, “Recent Developments in 14-3-3 Stabilizers for Regulating Protein-Protein Interactions: An Update” (J Med Chem, 2025):

How the values were obtained:
Estrogen receptor = target: T1, Estrogen receptor (Homo sapiens, UniProt P03372); assay: Inhibition of ERalpha (unknown origin)
T1 sequence (P03372 whole entry): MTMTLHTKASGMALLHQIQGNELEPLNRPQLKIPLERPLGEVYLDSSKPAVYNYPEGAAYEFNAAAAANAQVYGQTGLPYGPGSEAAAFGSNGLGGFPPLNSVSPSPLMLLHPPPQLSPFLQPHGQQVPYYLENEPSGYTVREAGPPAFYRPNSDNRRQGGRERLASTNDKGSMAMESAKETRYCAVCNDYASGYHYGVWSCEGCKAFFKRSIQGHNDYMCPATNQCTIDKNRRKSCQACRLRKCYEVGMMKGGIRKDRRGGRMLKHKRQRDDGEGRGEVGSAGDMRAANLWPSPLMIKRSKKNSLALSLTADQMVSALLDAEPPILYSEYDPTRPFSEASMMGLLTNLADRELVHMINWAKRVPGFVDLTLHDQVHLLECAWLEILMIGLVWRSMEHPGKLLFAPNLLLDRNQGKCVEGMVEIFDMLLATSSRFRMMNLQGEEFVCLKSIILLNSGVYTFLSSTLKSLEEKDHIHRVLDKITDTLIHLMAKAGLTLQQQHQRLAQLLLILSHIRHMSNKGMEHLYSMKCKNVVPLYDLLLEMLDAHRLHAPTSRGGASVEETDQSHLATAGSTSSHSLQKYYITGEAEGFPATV

[1] = target: RAF proto-oncogene serine/threonine-protein kinase (Homo sapiens, UniProt P04049); assay: Inhibition of C-RAF (unknown origin)
HL-60 = assay: cells; conditions: Homo sapiens, HL-60, 72 h
Description: Antiproliferative activity against human HL-60 cells assessed as reduction in cell growth incubated for 72 hrs by MTT assay

MIA PaCa-2 = assay: cells; conditions: Homo sapiens, MIA PaCa-2, 48 h
Description: Antiproliferative activity against human MIA PaCa-2 cells assessed as reduction in cell growth measured after 48 hrs by MTT assay

[2] = target: T2, 14-3-3 protein beta/alpha (Homo sapiens, UniProt P31946)
T2 sequence (P31946 whole entry): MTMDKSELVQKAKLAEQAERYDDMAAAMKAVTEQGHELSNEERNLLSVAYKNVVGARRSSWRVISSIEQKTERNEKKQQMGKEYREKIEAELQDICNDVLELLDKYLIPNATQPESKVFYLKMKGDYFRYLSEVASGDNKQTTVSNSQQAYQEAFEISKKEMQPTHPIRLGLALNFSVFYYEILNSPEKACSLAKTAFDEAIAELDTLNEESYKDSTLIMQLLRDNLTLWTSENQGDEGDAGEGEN

[3] = target: T2, 14-3-3 protein beta/alpha; remark: listed apart in the source

RAF proto-oncogene serine/threonine-protein kinase, sequence (P04049 whole entry): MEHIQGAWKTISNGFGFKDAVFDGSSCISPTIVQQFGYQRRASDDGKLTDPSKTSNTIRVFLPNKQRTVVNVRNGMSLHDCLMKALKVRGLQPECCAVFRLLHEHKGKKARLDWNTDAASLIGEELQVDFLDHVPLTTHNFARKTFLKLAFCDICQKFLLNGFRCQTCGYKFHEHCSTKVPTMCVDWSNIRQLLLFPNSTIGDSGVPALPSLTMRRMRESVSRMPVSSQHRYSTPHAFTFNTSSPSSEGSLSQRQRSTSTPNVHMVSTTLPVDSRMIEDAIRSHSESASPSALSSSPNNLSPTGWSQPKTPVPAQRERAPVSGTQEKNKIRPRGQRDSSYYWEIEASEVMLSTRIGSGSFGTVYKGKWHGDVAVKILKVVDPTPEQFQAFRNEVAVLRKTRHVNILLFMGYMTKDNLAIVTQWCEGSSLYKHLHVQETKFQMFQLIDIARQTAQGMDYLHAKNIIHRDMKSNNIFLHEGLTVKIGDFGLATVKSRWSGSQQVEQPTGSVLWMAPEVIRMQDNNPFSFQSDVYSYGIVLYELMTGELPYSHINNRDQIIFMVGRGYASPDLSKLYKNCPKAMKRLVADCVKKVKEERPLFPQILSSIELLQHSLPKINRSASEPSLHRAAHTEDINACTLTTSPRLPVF

O=C(C1=C(O)C(=O)N(c2ccc(O)c(C(=O)O)c2)C1c1ccc([N+](=O)[O-])cc1)c1ccccc1 (stereo not drawn)
IC50 (Estrogen receptor): 80 µM

CC(C)CC(NC(=O)[C@H](O)[C@H](N)Cc1ccccc1)C(=O)O (stereo partly drawn)
IC50 (Estrogen receptor): 1.8 µM

CN(C)CCSSCCC(=O)N1CCC(O)(c2cccc(C(F)(F)F)c2)CC1
IC50 [1]: 77 µM

CN(C)CCSSCCNC(=O)C1CCN(C(=O)C(C)(C)Oc2ccc(Cl)cc2)CC1
IC50 (Estrogen receptor): 19 µM | IC50 [1]: 81 µM

CN(C)CCSSCCNC(=O)C1CCCN(C(=O)c2ccc(Oc3ccccc3)cc2)C1 (stereo not drawn)
IC50 (Estrogen receptor): 426 µM | IC50 [1]: 426 µM

COc1ccc2cc([C@H](C)C(=O)N3CCC(C(=O)NCCSSCCN(C)C)CC3)ccc2c1
IC50 [1]: 246 µM

COC[C@H]1CC[C@@H]2/C1=C\[C@@]1(C)CCC(C(C)C)=C1C(O[C@@H]1O[C@@H](CNCc3ccccc3)[C@H](O)[C@@H](O)[C@@H]1O)[C@H](O)[C@@H]2C (stereo partly drawn)
IC50 (HL-60): 0.25 µM

COC[C@H]1CC[C@@H]2/C1=C\[C@@]1(C)CCC(C(C)C)=C1C(O[C@@H]1O[C@H]3COC(C)(C)O[C@@H]3[C@@H](O)[C@@H]1O)[C@H](O)[C@@H]2C (stereo partly drawn)
IC50 (MIA PaCa-2): 18 µM

N=C(N)c1cc(-c2cccc(NC(=O)C3(Oc4ccc(Cl)cc4)CCC(N)CC3)c2)cs1 (stereo not drawn)
IC50 [2]: 151 µM

O=Cc1ccc(-n2ccnc2-c2ccc(F)cc2F)cc1Br
IC50 [3]: 250 µM

NCCCNCCS [WR-1065]
IC50 (Estrogen receptor): 2.8 µM
